Test results taken from ChEMBL document CHEMBL1201862, “PubChem BioAssay data set” (2004).
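Results reflect a 48-hour exposure of cells in 96-well plates to compound at five concentrations. GI50: concentration for 50% inhibition of growth.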 The source made the active and inactive calls. Cut-off read from the data, not from the text of the source: active = GI50 up to about 1.1 µM and inactive = higher.

Experiments:
Test in all cases: inhibition of tumour cell growth, NCI panel, 48 h
[1] = tested on: 786-0
[2] = tested on: A498
[3] = tested on: CAKI-1
[4] = tested on: DMS-273
[5] = tested on: EKVX
[6] = tested on: HT-29
[7] = tested on: IGROV-1
[8] = tested on: Malme-3M
[9] = tested on: NCI-H226
[10] = tested on: NCI-H23
[11] = tested on: NCI-H460
[12] = tested on: NCI-H522
[13] = tested on: RPMI-8226
[14] = tested on: RXF 393
[15] = tested on: SF-539
[16] = tested on: SK-MEL-28
[17] = tested on: SN12C
[18] = tested on: UACC-62

Row | SMILES | GI50 [1] | GI50 [2] | GI50 [3] | GI50 [4] | GI50 [5] | GI50 [6] | GI50 [7] | GI50 [8] | GI50 [9] | GI50 [10] | GI50 [11] | GI50 [12] | GI50 [13] | GI50 [14] | GI50 [15] | GI50 [16] | GI50 [17] | GI50 [18]
1 | CN(C)c1n/c(=N/c2ccc3c(c2)OCO3)ss1 | 70.6 µM (inactive) | 43.9 µM (inactive) | 97.7 µM (inactive) | 66.5 µM (inactive) | 49.9 µM (inactive) | 38.5 µM (inactive) | > 100 µM (inactive) | > 100 µM (inactive) | > 100 µM (inactive) | 66.4 µM (inactive) | 47.4 µM (inactive) | 26.7 µM (inactive) | 19.3 µM (inactive) | 96.4 µM (inactive) | 67.6 µM (inactive) | > 100 µM (inactive) | 73.6 µM (inactive) | 58.3 µM (inactive)
2 | O=C1c2ccccc2C(=O)c2sc(Nc3cccc(Cl)c3)nc21 | 1.56 µM (inactive) | 2.07 µM (inactive) | 2.04 µM (inactive) | 1.87 µM (inactive) | 2.38 µM (inactive) | 3.34 µM (inactive) | 2.07 µM (inactive) | 1.52 µM (inactive) | 3.96 µM (inactive) | 1.49 µM (inactive) | 2.07 µM (inactive) | 1.45 µM (inactive) | 0.966 µM (active) | 1.45 µM (inactive) | 1.93 µM (inactive) | 1.81 µM (inactive) | 1.51 µM (inactive) | 1.73 µM (inactive)
3 | COC(=O)[C@H](C)[C@H]1CC[C@@](C)([C@H]2CC3C(C)(C)[C@H]4CCC(C)=C[C@H]4C[C@@]3(C)O2)OO1 (stereo not given in full) | 3.33 µM (inactive) | 8.71 µM (inactive) | 5.13 µM (inactive) | 12.6 µM (inactive) | 13.7 µM (inactive) | 13.5 µM (inactive) | 5.69 µM (inactive) | 14.1 µM (inactive) | 14.7 µM (inactive) | 7.6 µM (inactive) | 2.05 µM (inactive) | 1.66 µM (inactive) | 2.92 µM (inactive) | > 10 µM (inactive) | 15 µM (inactive) | 14.6 µM (inactive) | 11.1 µM (inactive) | 13.6 µM (inactive)
4 | CC(=O)OC1CC2C(C)(C)OC(=O)CC(OC(C)=O)[C@]2(C)C2CCC3(C)C(=CCC3[C@H]3COC(=O)C3)[C@]12C (stereo not given in full) | > 100 µM (inactive) | 96.4 µM (inactive) | > 100 µM (inactive) | 88.9 µM (inactive) | 65.5 µM (inactive) | 60.5 µM (inactive) | > 100 µM (inactive) | > 100 µM (inactive) | > 100 µM (inactive) | > 100 µM (inactive) | > 100 µM (inactive) | 83.4 µM (inactive) | 47.1 µM (inactive) | > 100 µM (inactive) | > 100 µM (inactive) | 42.6 µM (inactive) | > 100 µM (inactive) | 97.7 µM (inactive)
5 | CC(=O)C(CN(C)Cc1ccccc1)C(c1ccccc1)c1c(O)c2ccccc2oc1=O (stereo not given) | > 100 µM (inactive) | > 100 µM (inactive) | > 100 µM (inactive) | > 100 µM (inactive) | > 100 µM (inactive) | > 100 µM (inactive) | > 100 µM (inactive) | > 100 µM (inactive) | 10.4 µM (inactive) | > 100 µM (inactive) | > 100 µM (inactive) | 80.4 µM (inactive) | 58.6 µM (inactive) | > 100 µM (inactive) | > 100 µM (inactive) | > 100 µM (inactive) | > 100 µM (inactive) | > 100 µM (inactive)
6 | CC1C[C@H](C)CC(C(O)CC2CC(=O)N(Cc3ccccc3)C(=O)C2)C1O (stereo not given in full) | > 100 µM (inactive) | > 100 µM (inactive) | > 100 µM (inactive) | > 100 µM (inactive) | > 100 µM (inactive) | > 100 µM (inactive) | > 100 µM (inactive) | > 100 µM (inactive) | > 100 µM (inactive) | 2.65 µM (inactive) | > 100 µM (inactive) | > 100 µM (inactive) | > 100 µM (inactive) | > 100 µM (inactive) | > 100 µM (inactive) | > 100 µM (inactive) | > 100 µM (inactive) | > 100 µM (inactive)
7 | CSc1nc(NC2OCC(OC(C)=O)C(OC(C)=O)C2OC(C)=O)c2c(n1)OCC2=O (stereo not given) | > 100 µM (inactive) | > 100 µM (inactive) | > 100 µM (inactive) | > 100 µM (inactive) | > 100 µM (inactive) | > 100 µM (inactive) | > 100 µM (inactive) | > 100 µM (inactive) | > 100 µM (inactive) | > 100 µM (inactive) | > 100 µM (inactive) | > 100 µM (inactive) | > 100 µM (inactive) | > 100 µM (inactive) | > 100 µM (inactive) | > 100 µM (inactive) | > 100 µM (inactive) | > 100 µM (inactive)
8 | Cc1cn2c(=O)c3ncn(C4OC(CO)C(O)C4O)c3n(C)c2n1 (stereo not given) | > 100 µM (inactive) | > 100 µM (inactive) | > 100 µM (inactive) | > 100 µM (inactive) | > 100 µM (inactive) | > 100 µM (inactive) | > 100 µM (inactive) | > 100 µM (inactive) | > 100 µM (inactive) | > 100 µM (inactive) | > 100 µM (inactive) | > 100 µM (inactive) | > 100 µM (inactive) | > 100 µM (inactive) | > 100 µM (inactive) | > 100 µM (inactive) | > 100 µM (inactive) | > 100 µM (inactive)
9 | Cc1ccc(/N=N/c2c(-c3ccccc3)nn(C(=O)CC(=O)Nc3ccc(Cl)cc3)c2-c2ccccc2)cc1 | 36.5 µM (inactive) | 31.8 µM (inactive) | 55 µM (inactive) | > 100 µM (inactive) | 2.3 µM (inactive) | 65.3 µM (inactive) | > 100 µM (inactive) | 83.6 µM (inactive) | 36.6 µM (inactive) | 44.2 µM (inactive) | > 100 µM (inactive) | 37.8 µM (inactive) | 18.8 µM (inactive) | 28.4 µM (inactive) | 58.9 µM (inactive) | > 100 µM (inactive) | > 100 µM (inactive) | 70.5 µM (inactive)
10 | Cc1cc(NS(=O)(=O)c2ccc(Nc3c4ccccc4nc4c(C(=O)N5CCN(CCO)CC5)ccc(Cl)c34)cc2)no1 | > 100 µM (inactive) | > 100 µM (inactive) | > 100 µM (inactive) | > 100 µM (inactive) |  | > 100 µM (inactive) | 96.2 µM (inactive) | > 100 µM (inactive) | > 100 µM (inactive) | > 100 µM (inactive) | > 100 µM (inactive) |  | 70.1 µM (inactive) | > 100 µM (inactive) | > 100 µM (inactive) | > 100 µM (inactive) | 72.1 µM (inactive) | 42.5 µM (inactive)
11 | O/N=C1/C(=C/c2ccc3c(c2)OCO3)CCCC1C(NO)c1ccc2c(c1)OCO2 (stereo not given) | 28.9 µM (inactive) | 26.5 µM (inactive) | 28.6 µM (inactive) | 21.8 µM (inactive) | 35.1 µM (inactive) | 16.7 µM (inactive) | 28.2 µM (inactive) | 22 µM (inactive) |  | 30.4 µM (inactive) | 29.4 µM (inactive) | 17.7 µM (inactive) | 18.8 µM (inactive) | 23.6 µM (inactive) | 18 µM (inactive) | 21.7 µM (inactive) | 21.3 µM (inactive) | 19 µM (inactive)
